Patent publication US20100178316A1, “EXTENDED RELEASE OF BIOACTIVE MOLECULES FROM SILICONE HYDROGELS” (priority 2007, published 2010)

Columns and labels:
Format in all cases: physicochemical
[1] = Drug release into fresh PBS solution after packaging storage; conditions: 2 ml fresh PBS
Protocol: (§1) Commercial contact lenses are typically packaged in about 1-1.5 ml of packaging solution such as PBS. To estimate the effects of packaging on drug release behavior of silicone hydrogel appliances, packaging tests were conducted. A 0.1 mm thick silicone hydrogel was cut into circular pieces of 1.75 cm diameter and a drug was loaded by soaking the silicone hydrogel in a drug-ethanol solution. A 0.1 mm thick piece of GEL1 was loaded with a drug by soaking in drug-ethanol solution of 6.4 mg/ml for timolol and 4.8 mg/ml for DXA. The GEL1 pieces were then blotted with wipes to remove excess drug-ethanol solution from the pieces. The pieces were dried in air overnight before conducting the packaging tests. The silicone hydrogels were then stored in 1 ml of PBS (packaging) solution in a sealed vials for 1.3 or 2 months, and subsequently the appliance was placed in 2 ml of fresh PBS solution. The release of the drug over time is plotted in FIG. 17 and FIG. 18 for timolol and DXA, respectively. For timolol, about 364 μg and 404 μg of drug were lost to the packaging solution for the appliance stored for 1.3 months and 2 months, respectively. The residual drug released into the fresh PBS solution at an average rate of 0.09 mg/(g of gel·day) for 20 days, and then at a lower rate for another 2 months as shown in FIG. 17. […]

[2] = Packaging test: drug lost from drug-loaded silicone hydrogel to PBS packaging solution; conditions: 0.1 mm thick GEL1, 1.75 cm diameter, loaded from drug-ethanol solution
Protocol: as §1

[3] = Drug release experiments from ethanol-loaded silicone hydrogel pieces soaked in PBS; conditions: GEL1 to GEL4, 0.1-0.4 mm thick, loaded from 0.64 or 6.4 mg/mL ethanol solution
Protocol: Drugs were individually loaded into individual square pieces of the gels by soaking a gel in 2 or 2.5 mL of a drug-ethanol solution for a period of 3 hours. At the end of three hours the gel was taken out and excess drug-ethanol solution was blotted from the surface of the piece with wipes. The gels were dried in air overnight, and subsequently used for drug release experiments. Results of drug release experiment are given below for three drugs (dexamethasone (DX), dexamethasone acetate (DXA) and timolol) which were individually loaded into different gel pieces.
Drug release experiments were conducted by soaking the square shaped drug containing gel pieces, prepared as described in Example 1, in Dulbecco's phosphate buffered saline (PBS). The volume of the PBS was varied depending on the thickness of the gel to maintain a constant volume ratio of gel to PBS for all samples. The gels of 0.1 mm, 0.2 mm, and 0.4 mm thickness were soaked in 1.5 mL, 3 mL, 6 mL of PBS, respectively.
In like manner to Examples 1, 2 and 3, timolol release experiments were conducted with square pieces of the gels of three different thicknesses for the four different compositions prepared in Example 1 (GEL1 to GEL4), with two different drug loadings by varying the concentration of the drug-ethanol solution used. […]

In the case of `CC(C)(C)NC[C@H](O)COc1nsnc1N1CCOCC1` [timolol], the “further release at a lower rate, duration” value ([1]; 0.1 mm thick GEL1 after packaging, after the first 20 days) is reported as 2 months, the “average release rate of residual drug into fresh PBS solution” value ([1]; 0.1 mm thick GEL1 loaded from 6.4 mg/ml ethanol solution, after packaging, for 20 days) is reported as 0.09 mg/(g of gel·day) and the “drug lost to the packaging solution” value ([2]; stored in 1 ml PBS for 1.3 months) is reported as “about 364 μg”. The “drug lost to the packaging solution” value ([2]; stored in 1 ml PBS for 2 months) was roughly 404 µg, the “initial burst release (in words)” value [3] was “initial burst is small in each system” and the “release behaviour from gels into PBS (in words)” value [3] was “all gels release timolol over a long period of time”.
